Laboratory results: ChEMBL document CHEMBL1201862, “PubChem BioAssay data set” (2004)
The source made the active and inactive calls. Cut-off read from the data, not from the text of the source, for most assays here: actives have a measured EC50 and inactives only a lower limit.

Columns and labels:
[1] = target: T1, Heat shock factor protein 1 (Mus musculus, UniProt P38532); test: HSF1 potentiators in luciferase reporter cells, confirmation, cell-based, NIH3T3, luminescence, dose retest (AID 435004); type: functional;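 note: stress induced by proteasome inhibitor MG132 added 30 min after compound; luciferase reporter driven by HSF1 response element in NIH3T3 cells; actives raise luminescence as potentiators of the MG132 stress response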
T1 sequence (P38532 whole entry): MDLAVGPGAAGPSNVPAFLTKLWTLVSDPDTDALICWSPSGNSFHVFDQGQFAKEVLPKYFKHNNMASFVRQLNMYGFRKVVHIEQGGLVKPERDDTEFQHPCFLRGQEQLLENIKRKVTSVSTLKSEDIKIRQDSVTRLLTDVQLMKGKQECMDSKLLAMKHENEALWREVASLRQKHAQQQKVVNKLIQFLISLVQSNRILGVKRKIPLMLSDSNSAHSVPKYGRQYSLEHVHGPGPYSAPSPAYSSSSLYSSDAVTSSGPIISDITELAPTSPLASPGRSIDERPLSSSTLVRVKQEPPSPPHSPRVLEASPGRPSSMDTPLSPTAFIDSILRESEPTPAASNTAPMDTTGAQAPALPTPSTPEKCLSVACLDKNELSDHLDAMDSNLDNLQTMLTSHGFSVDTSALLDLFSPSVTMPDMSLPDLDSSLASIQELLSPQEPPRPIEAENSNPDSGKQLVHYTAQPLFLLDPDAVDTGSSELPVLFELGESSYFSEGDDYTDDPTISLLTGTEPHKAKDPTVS

[2] = target: T2, Polyadenylate-binding protein 1 (Homo sapiens, UniProt P11940); test: PABP1 MLLE–PAM2 binding inhibitor potency, dose response, biochemical, fluorescence polarization, FITC-PAM2 peptide (AID 602259); type: functional; conditions: read-out: IC50_Mean
[3] = target: T2, Polyadenylate-binding protein 1; test: PABP1 MLLE–PAM2 interaction inhibitors, dose response, miRNA deadenylation inhibitor project, biochemical, fluorescence polarization, Cy5-PAM2 peptide, secondary (AID 602260); type: functional; conditions: read-out: IC50_Mean
[4] = Luminescence Cell-Based Dose Confirmation HTS to Identify Inhibitors of Platelet Dense Granule Release. [Related pubchem assays: 1663 (Primary HTS), 1678 (Summary of Project)]; type: functional
[5] = target: T1, Heat shock factor protein 1; test: inhibition of MG132-induced HSE-luciferase signal, confirmation, cell-based, NIH3T3, luminescence, dose retest (AID 2382); type: functional;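 note: NIH3T3 fibroblasts with HSF1-driven luciferase reporter stressed by proteasome inhibitor MG132; luminescence from HSF1-driven luciferase expression after 8 hours of MG132 stress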
[6] = target: Luciferin 4-monooxygenase (Photinus pyralis, UniProt P08659); test: firefly luciferase enzyme inhibitors, dose response, biochemical, luminescence (AID 1891)
BJ [7] = test: cells; type: functional, cell-based; conditions: Homo sapiens
BJ [8] = test: cytotoxicity toward BJ-TERT fibroblasts, dose response, cell-based, RAS-independent, luminescence (AID 1933); type: functional; conditions: Homo sapiens
BJ [9] = test: cytotoxicity toward BJ-TERT-LT-ST fibroblasts, dose response, cell-based, RAS-independent, luminescence (AID 1935); type: functional; conditions: Homo sapiens;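 note: BJ fibroblasts immortalized with TERT plus LT and ST oncogenes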
[10] = cytotoxicity toward DRD oncogenic fibroblasts, dose response, cell-based, non-viral oncogenic, luminescence (AID 1934); type: functional; conditions: Homo sapiens
[11] = system: Streptococcus sp. 'group A'; test: growth inhibition of control SK(-) GAS strain, dose response, counter-screen for streptokinase expression inhibitor project, luminescence, kanamycin, BacTiterGlo, confirmation (AID 1900); type: functional, organism-based
Streptococcus = test: Group A Streptococcus viability loss, dose response, counter-screen for streptokinase expression inhibitor project, luminescence, BacTiterGlo (AID 1915); type: functional, organism-based;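 note: potency for reduction of bacterial viability or growth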
[12] = target: FAD-linked sulfhydryl oxidase ALR (Homo sapiens, UniProt P55789); test: inhibitors of human ALR sulfhydryl oxidase, dose response, biochemical, H2O2 detection, luminescence, cherry-pick (AID 493248)
Streptokinase A = target: T3, Streptokinase A (Streptococcus pyogenes serotype M1, UniProt P10520); test: S. pyogenes streptokinase expression inhibitors, potency, dose response, plasminogen activation absorbance, OD405 (AID 1914); type: functional, Streptococcus pyogenes M1 GAS;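 note: secreted streptokinase activity via plasminogen activation per viability signal from cell pellet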
T3 sequence (P10520 whole entry): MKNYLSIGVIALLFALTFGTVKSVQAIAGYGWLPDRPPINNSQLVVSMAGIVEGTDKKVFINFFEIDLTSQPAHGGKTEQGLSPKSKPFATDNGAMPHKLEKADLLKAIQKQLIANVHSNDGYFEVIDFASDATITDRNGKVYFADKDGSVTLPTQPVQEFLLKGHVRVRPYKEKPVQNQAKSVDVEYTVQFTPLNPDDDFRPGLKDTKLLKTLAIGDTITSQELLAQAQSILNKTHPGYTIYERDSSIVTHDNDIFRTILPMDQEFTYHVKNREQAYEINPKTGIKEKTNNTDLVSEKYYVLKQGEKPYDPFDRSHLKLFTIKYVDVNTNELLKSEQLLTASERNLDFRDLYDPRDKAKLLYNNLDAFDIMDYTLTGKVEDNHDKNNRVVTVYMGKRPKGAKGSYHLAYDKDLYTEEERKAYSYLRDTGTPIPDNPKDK

[13] = target: Induced myeloid leukemia cell differentiation protein Mcl-1 (Homo sapiens, UniProt Q07820); type: functional
[14] = inhibitors of intracellular T. cruzi replication, confirmation, NIH3T3 host cells, beta-gal luminescence (AID 2044); type: functional, cell-based;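 note: intracellular parasites grown in NIH/3T3 mouse fibroblasts as host cells; luminescent beta-galactosidase reporter signal from transgenic T. cruzi replicating inside host cells; inhibitors lower the luminescence signal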
[15] = cytotoxicity toward NIH3T3 fibroblasts, dose response, counter-screen, cell-based, ATP luminescence, mouse fibroblasts (AID 2010); type: functional;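 note: cells exposed to compound for about 90 hours before reading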
[16] = Luminescence Cell-Based Dose Retest to Confirm Inhibitors of Cancer Stem Cells. [Related pubchem assays (depositor defined):AID2717, AID2721]; type: functional; conditions: Homo sapiens

T2 sequence (P11940 whole entry): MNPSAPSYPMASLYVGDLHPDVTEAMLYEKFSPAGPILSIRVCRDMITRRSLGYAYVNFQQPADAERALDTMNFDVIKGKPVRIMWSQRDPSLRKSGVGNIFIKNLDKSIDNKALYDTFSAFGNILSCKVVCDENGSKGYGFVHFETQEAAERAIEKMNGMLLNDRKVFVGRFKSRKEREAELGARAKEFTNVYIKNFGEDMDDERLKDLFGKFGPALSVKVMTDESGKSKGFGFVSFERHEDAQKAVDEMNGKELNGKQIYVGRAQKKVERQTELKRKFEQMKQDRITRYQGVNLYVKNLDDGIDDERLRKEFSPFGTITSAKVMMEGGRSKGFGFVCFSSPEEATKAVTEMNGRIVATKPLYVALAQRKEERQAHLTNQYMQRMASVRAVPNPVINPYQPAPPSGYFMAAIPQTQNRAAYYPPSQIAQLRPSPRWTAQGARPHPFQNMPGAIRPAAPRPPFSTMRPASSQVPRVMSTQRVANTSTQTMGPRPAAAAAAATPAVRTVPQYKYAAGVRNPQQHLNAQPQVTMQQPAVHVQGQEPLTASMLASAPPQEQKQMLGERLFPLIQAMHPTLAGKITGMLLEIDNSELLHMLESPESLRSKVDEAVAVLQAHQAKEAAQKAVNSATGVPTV
Sequence of Luciferin 4-monooxygenase (P08659 whole entry): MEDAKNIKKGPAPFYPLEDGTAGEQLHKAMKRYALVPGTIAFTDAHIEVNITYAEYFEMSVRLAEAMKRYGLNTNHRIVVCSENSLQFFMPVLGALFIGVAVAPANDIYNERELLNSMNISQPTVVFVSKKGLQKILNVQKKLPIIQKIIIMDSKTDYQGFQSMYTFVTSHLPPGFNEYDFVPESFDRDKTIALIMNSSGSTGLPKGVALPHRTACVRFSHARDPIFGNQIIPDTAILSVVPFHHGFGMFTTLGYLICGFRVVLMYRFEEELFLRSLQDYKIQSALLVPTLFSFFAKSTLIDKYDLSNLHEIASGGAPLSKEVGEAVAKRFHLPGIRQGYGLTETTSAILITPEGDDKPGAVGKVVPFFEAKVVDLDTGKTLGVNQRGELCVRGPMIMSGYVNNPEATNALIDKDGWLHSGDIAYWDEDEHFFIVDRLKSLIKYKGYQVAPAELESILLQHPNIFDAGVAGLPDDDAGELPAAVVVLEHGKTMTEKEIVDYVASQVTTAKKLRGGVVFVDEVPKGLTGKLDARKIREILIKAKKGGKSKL
Sequence of FAD-linked sulfhydryl oxidase ALR (P55789 whole entry): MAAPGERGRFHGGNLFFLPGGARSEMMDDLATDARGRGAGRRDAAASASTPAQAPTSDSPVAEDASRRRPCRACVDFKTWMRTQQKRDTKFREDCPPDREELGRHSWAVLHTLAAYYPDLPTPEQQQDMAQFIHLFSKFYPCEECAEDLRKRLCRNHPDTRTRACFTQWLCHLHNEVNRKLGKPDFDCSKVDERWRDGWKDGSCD
Sequence of Induced myeloid leukemia cell differentiation protein Mcl-1 (Q07820 whole entry): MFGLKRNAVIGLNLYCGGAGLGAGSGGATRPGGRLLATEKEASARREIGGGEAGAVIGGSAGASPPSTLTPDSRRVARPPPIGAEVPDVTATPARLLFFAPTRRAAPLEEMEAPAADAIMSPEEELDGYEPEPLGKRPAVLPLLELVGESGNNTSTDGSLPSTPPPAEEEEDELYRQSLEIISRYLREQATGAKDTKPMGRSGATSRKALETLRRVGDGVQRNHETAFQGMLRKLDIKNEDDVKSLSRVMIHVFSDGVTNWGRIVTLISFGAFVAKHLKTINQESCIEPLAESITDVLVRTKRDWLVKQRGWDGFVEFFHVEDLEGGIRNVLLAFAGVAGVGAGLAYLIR

## CCOC(=S)SCC(=O)N1CCc2cc(OC)c(OC)cc2C1C1C(=O)CC(C)(C)CC1=O (stereo not given)
[1]
  EC50: > 260 µM (inactive)

## O=C(CC(Sc1ccccc1)c1cccs1)c1ccco1 (stereo not given)
[2]
  IC50: > 66 µM (inactive)
[3]
  IC50: > 66 µM (inactive)

## Cc1ccc(C(=O)O/N=C(\N)c2ccccc2)c(Cl)c1
[4]
  EC50: 2.42 µM (active)
[5]
  EC50: < 0.16 µM (active)
[6]
  EC50: 1.03 µM (active)

## CCCCOc1ccc(NC(=O)C(=O)NCCC2=CCCCC2)cc1
BJ [7]
  EC50: > 150 µM (not active)
BJ [8]
  EC50: > 150 µM (not active)
BJ [9]
  EC50: > 150 µM (inconclusive)
[10]
  EC50: 142 µM (active)

## CCCc1ccc(-c2cc(N)[nH]n2)cc1
[11]
  EC50: 30.9 µM (active)
Streptococcus
  EC50: > 150 µM (not active)
[12]
  AC50: 11.3 µM (active)
Streptokinase A
  EC50: > 150 µM (not active)

## CCCn1nc(C(=O)NNC(=O)c2cccc(S(=O)(=O)NC(C)C)c2)c2ccccc2c1=O
[4]
  EC50: > 112 µM (not active)
[6]
  EC50: > 112 µM (not active)

## CCC(C)NCCCOc1c(C)cc(C)cc1Br (stereo not given)
[13]
  IC50: 6.63 µM (not active)

## COC(=O)c1cn(NC(=O)C2CCC(C)CC2)c(=O)c2ccccc12 (stereo not given)
[1]
  EC50: > 260 µM (inactive)

## O=C(Nc1cccc(NC(=O)c2cccnc2Cl)c1)c1ccco1
[4]
  EC50: 16.6 µM (active)
[6]
  EC50: > 112 µM (not active)

## COCC(C)n1c(C)cc(C(=O)CN2C(=O)NC(Cc3c[nH]c4ccccc34)C2=O)c1C (stereo not given)
[4]
  EC50: > 112 µM (not active)
[6]
  EC50: > 112 µM (not active)

## Cc1cc2ccccn2c1C(=O)c1cccc([N+](=O)[O-])c1
BJ [7]
  EC50: > 150 µM (not active)
BJ [8]
  EC50: > 150 µM (not active)
BJ [9]
  EC50: > 150 µM (inconclusive)
[10]
  EC50: > 150 µM (inconclusive)

## Cc1cc2oc(=O)cc(CNc3ccccc3F)c2cc1O
[11]
  EC50: 9.59 µM (active)
Streptococcus
  EC50: > 150 µM (not active)
[14]
  EC50: 1.81 µM (active)
[15]
  EC50: > 60 µM (not active)
Streptokinase A
  EC50: 51.2 µM (active)

## Nc1cc(-c2ccc(OC(F)(F)F)cc2)nn1-c1ccc(Cl)c(Cl)c1
[11]
  EC50: 6.98 µM (active)
Streptococcus
  EC50: 11.6 µM (active)
[16]
  AC50: 4.74 µM (active)
Streptokinase A
  EC50: 20 µM (inconclusive)

## Cc1nc2cc(Nc3ccncc3)ccc2s1
[4]
  EC50: > 112 µM (not active)
[6]
  EC50: > 112 µM (not active)

## Cc1ccc(C(=O)CNc2cccc([N+](=O)[O-])c2)cc1
[2]
  IC50: > 66 µM (inactive)
[3]
  IC50: > 66 µM (inactive)

## O=S(=O)(c1cc(Cl)ccc1Cl)N1CC2CCCN2c2ccc(C(F)(F)F)cc21 (stereo not given)
[1]
  EC50: > 260 µM (inactive)

## COc1ccc(C2=CC(c3ccc(OC)c(OC)c3)c3c(c4ccccc4oc3=O)O2)cc1OC (stereo not given)
[5]
  EC50: > 195 µM (not active)
BJ [7]
  EC50: 51.8 µM (active)
BJ [8]
  EC50: 5.11 µM (active)
BJ [9]
  EC50: 27.7 µM (active)
[10]
  EC50: 17.3 µM (active)
